Results: paper PMC8206213, “An L-2-hydroxyglutarate biosensor based on specific transcriptional regulator LhgR” (Nature Communications, 2021)
Where “and” joins values, the source holds several entries; their conditions need not be identical. Equal values may be shown once.

Experiments:
LhgR = assay: EMSA, effect of compounds on LhgR binding to the lhgO promoter region F1; parameters: species or system Pseudomonas putida W619; conditions: 50 mM compound, 10 nM F1, 60 nM LhgR
Method: Electrophoretic mobility shift assays (EMSAs) were carried out using the DNA fragment (F1 or F2) and purified LhgR. The DNA fragments were first amplified by primer pairs F1-F/F1-R and F2-F/F2-R, respectively. Then, either fragment at a concentration of 10 nM DNA was incubated with LhgR (0–160 nM) in 20 μL EMSA binding buffer (10 mM Tris-HCl [pH 7.4], 50 mM KCl, 0.5 mM EDTA, 10% [vol/vol] glycerol, and 1 mM dithiothreitol [DTT]). The binding reactions were carried out at 30 °C for 30 min. Electrophoresis was performed on 6% native polyacrylamide gels at 4 °C and 170 V (constant voltage) for about 45 min, followed by staining with SYBR green I (TaKaRa, China) and photographing. Analysis of the interaction between lhgO promoter region (F1) and LHGFR was performed using the same procedure.
To characterize the effector of LhgR, purified LhgR was first incubated with L-lysine, 5-aminovalerate, glutarate, L-2-HG, D-2-HG, 2-KG, or succinate at 30 °C for 15 min, followed by incubation with the added DNA fragments at 30 °C for 30 min. The mixtures were subsequently subjected to electrophoresis.

LHGFR0N3C = assay: Specificity of purified LHGFR0N3C, emission ratio with 240 μM compounds; assay type: binding, Pseudomonas putida W619; conditions: 240 μM compound
Method: (§1) Purified L-2-HG biosensors and different compounds were diluted by 50 mM Tris-HCl buffer (pH 7.4), mixed together in a black 96-well plate at a volume ratio of 3:1, and the fluorescence intensities were measured using an EnSight microplate reader (PerkinElmer, USA) with excitation at 430 nm, emission at 485 nm (mTFP) and 528 nm (Venus). […] The [L-2-HG], Kd, and p refer to the L-2-HG concentration, apparent dissociation constant, and Hill slope, respectively. Emission spectra were recorded at 430 nm excitation, in steps of 2 nm. Excitation spectra were recorded using emission at 550 nm, excitation from 380 to 535 nm in steps of 2 nm.

LHGFR0N7C = assay: Influence of other compounds on the response of purified LHGFR0N7C to L-2-HG; assay type: binding, Pseudomonas putida W619; conditions: Suppl. Fig. 9b; L-2-HG alone or with the compound; three replicates
Method: as §1

[1] = tested on: LHGFR0N3C expressed in E. coli BL21(DE3); assay: Specificity of LHGFR0N3C expressed in E. coli BL21(DE3), 1 mM compounds; assay type: cell-based; conditions: for Emission ratio: 1 mM compound, Fig. 5c
Method: (§2) To characterize the sensitivity and specificity of LHGFR expressed in E. coli BL21(DE3), 90 μL cell suspensions following 8 h carbon starvation were mixed with 10 μL increasing concentrations of L-2-HG or other compounds, and then added into a black 96-well plate (total 100 μL/per well), the fluorescence intensities were determined using an EnSight microplate reader (PerkinElmer, USA) and the following instrument settings: excitation at 430 nm, emission at 485 nm (mTFP) and 528 nm (Venus), time intervals of 5 min, the temperature at 37 °C, and shake at 180 rpm.

[2] = tested on: LHGFR0N7C expressed in E. coli BL21(DE3); assay: Specificity of LHGFR0N7C expressed in E. coli BL21(DE3), 1 mM compounds; assay type: cell-based; conditions: Supplementary Fig. 13c
Method: as §2

[3] = tested on: LHGFR0N3C expressed in HEK293FT cells; assay: Specificity of LHGFR0N3C expressed in permeabilized HEK293FT cells, 1 mM compounds; assay type: cell-based, human (HEK293FT cells); conditions: 1 mM compound, cells permeabilized with 10 μM digitonin, normalized to control
Method: (§3) To characterize the sensitivity and specificity of LHGFR expressed in HEK293FT cells, cells were trypsinized 48 h following transfection and suspended in 1× Hank’s balanced salt solution supplemented with 20 mM HEPES. […] Digitonin at a concentration of 10 μM was used to induce cell permeabilization and deplete intracellular L-2-HG for in vivo response curves construction. Then, the fluorescence intensities were determined by a SpectraMax i3 fluorescence plate reader (Molecular Devices, USA) with excitation at 430 nm and emission at 485 nm (mTFP) and 528 nm (Venus). Basal L-2-HG concentration in HEK293FT cells under physiological conditions was determined by substituting the emission ratios of non-permeabilized HEK293FT cells into the calibrated in vivo response curves.

[4] = tested on: LHGFR0N7C expressed in HEK293FT cells; assay: Specificity of LHGFR0N7C expressed in permeabilized HEK293FT cells, 1 mM compounds; assay type: cell-based, human (HEK293FT cells); conditions: Supplementary Fig. 17d; Control about 1
Method: as §3

O=C(O)CC[C@@H](O)C(=O)O [D-2-HG]
Effect on LhgR binding to the lhgO promoter region F1 (LhgR): observed only in the presence of L-2-HG | Emission ratio (LHGFR0N3C): 1.4562 and 1.441 and 1.426 | Emission ratio (LHGFR0N7C): 2.616 and 2.6121 and 2.633 | Emission ratio ([1]; 0 min): 1.011 and 0.989 and 0.9926 | Emission ratio ([1]; 5 min): 1.03 and 1.001 and 1.013 | Emission ratio ([1]; 10 min): 1.043 and 1.03 and 1.027 | Emission ratio ([1]; 15 min): 1.0445 and 1.033 and 1.032 | Emission ratio ([1]; 20 min): 1.062 and 1.044 and 1.049 | Emission ratio ([1]; 25 min): 1.051 and 1.047 and 1.058 | Emission ratio ([1]; 30 min): 1.07 and 1.05 and 1.058 | Emission ratio ([1]; 35 min): 1.071 and 1.055 and 1.07 | Emission ratio ([1]; 40 min): 1.061 and 1.059 and 1.064 | Emission ratio ([1]; 45 min): 1.071 and 1.057 and 1.074 | Emission ratio ([1]; 50 min): 1.071 and 1.056 and 1.075 | Emission ratio ([1]; 55 min): 1.074 and 1.067 and 1.073 | Emission ratio ([1]; 60 min): 1.07 (2×) and 1.065 | Emission ratio ([1]; 65 min): 1.082 (2×) and 1.064 | Emission ratio ([1]; 70 min): 1.08 and 1.068 and 1.078 | Emission ratio ([1]; 75 min): 1.08 and 1.07 and 1.0822 | Emission ratio ([1]; 80 min): 1.068 and 1.078 and 1.077 | Emission ratio ([1]; 85 min): 1.078 and 1.065 and 1.085 | Emission ratio ([1]; 90 min): 1.07 and 1.071 and 1.074 | Increase of the emission ratio in E. coli BL21(DE3) ([1]; 1 mM exogenous compound): could not | normalized emission ratio of biosensor expressed in E. coli ([2]; time 0 min): 1.005 and 1.001 and 1.025 | normalized emission ratio of biosensor expressed in E. coli ([2]; time 5 min): 1.058 and 1.062 and 1.055 | normalized emission ratio of biosensor expressed in E. coli ([2]; time 10 min): 1.088 and 1.077 and 1.073 | normalized emission ratio of biosensor expressed in E. coli ([2]; time 15 min): 1.099 and 1.097 and 1.073 | normalized emission ratio of biosensor expressed in E. coli ([2]; time 20 min): 1.1106 and 1.107 and 1.081 | normalized emission ratio of biosensor expressed in E. coli ([2]; time 25 min): 1.121 and 1.111 and 1.082 | normalized emission ratio of biosensor expressed in E. coli ([2]; time 30 min): 1.109 and 1.1104 and 1.081 | normalized emission ratio of biosensor expressed in E. coli ([2]; time 35 min): 1.129 and 1.12 and 1.084 | normalized emission ratio of biosensor expressed in E. coli ([2]; time 40 min): 1.119 and 1.117 and 1.099 | normalized emission ratio of biosensor expressed in E. coli ([2]; time 45 min): 1.1243 and 1.118 and 1.09 | normalized emission ratio of biosensor expressed in E. coli ([2]; time 50 min): 1.133 and 1.117 and 1.095 | normalized emission ratio of biosensor expressed in E. coli ([2]; time 55 min): 1.1262 and 1.1195 and 1.107 | normalized emission ratio of biosensor expressed in E. coli ([2]; time 60 min): 1.117 and 1.122 and 1.102 | normalized emission ratio of biosensor expressed in E. coli ([2]; time 65 min): 1.12 and 1.121 and 1.101 | normalized emission ratio of biosensor expressed in E. coli ([2]; time 70 min): 1.122 and 1.126 and 1.113 | normalized emission ratio of biosensor expressed in E. coli ([2]; time 75 min): 1.124 and 1.132 and 1.112 | normalized emission ratio of biosensor expressed in E. coli ([2]; time 80 min): 1.131 and 1.12 and 1.117 | normalized emission ratio of biosensor expressed in E. coli ([2]; time 85 min): 1.127 and 1.1355 and 1.123 | normalized emission ratio of biosensor expressed in E. coli ([2]; time 90 min): 1.127 and 1.137 and 1.122 | Normalized emission ratio [3]: 1.056 and 1.057 and 1.069 | Normalized emission ratio [4]: 1.116 and 1.067 and 1.082
